Measured values published in PMC2074348, “Preclinical in vivo efficacy of two 9-dihydrotaxane analogues against human and murine tumours” (British Journal of Cancer, 1996).
In brackets after ≈: the same amount, converted by molar mass. Read-outs that look alike come from different tables or passages of the source.

Experiments:
A549 = experiment: In vitro tumour cell cytotoxicity, colorimetric MTT assay, 72 h; type: cell-based, human; settings: Homo sapiens, 72 h exposure, read-out: IC50
ovarian tumours = tested on: ovarian tumours; parameters: method as in McGuire et al., 1989; settings: ovarian tumours that had failed cisplatinum therapy; ref McGuire et al., 1989; cited from earlier work
[1] = tested on: human MX-1 xenograft solid tumour; settings: for Delay (1.0 g) (footnote: delay to reach mean tumour mass = 0.5 g, compared with untreated) / Per cent cures (mice with no palpable tumours, day 60) / Per cent toxicity / TWI (per cent tumour weight inhibition when untreated control mean = 0.5 g): q.d., i.p., days 1-5 after inoculation, s.c. xenograft
[2] = tested on: BDF mice bearing B16F10 ascites tumours; settings: maximum dose yielding <20% lethality following five i.p. doses once daily
P388 = experiment: In vitro tumour cell cytotoxicity, colorimetric MTT assay, 72 h; type: cell-based, murine; settings: Mus musculus, 72 h exposure, read-out: IC50
in vivo = settings: male, CD-1, mouse, ip, 20 mg/kg
breast tumour = tested on: breast tumour; parameters: method as in Holmes et al., 1991; settings: breast tumour patients who had failed one previous course of chemotherapy; ref Holmes et al., 1991; cited from earlier work
[3] = tested on: murine B16F10 melanoma ascites tumour; experiment: In vivo efficacy vs i.p. B16F10 melanoma ascites tumour; settings: for %ILS (group mean increase in lifespan) / MST (mean survival time ± s.d.) / Per cent toxicity (mice with premature death) / Per cent cures (mice alive 60 days after inoculation): q.d., i.p., days 1-5 after inoculation, BDF1 mice
[4] = mouse, in vivo, ip, 20 mg/kg
murine M109 solid tumour = experiment: In vivo efficacy vs subcutaneous M109 solid tumour
B16F10 = experiment: In vitro tumour cell cytotoxicity, colorimetric MTT assay, 72 h; type: cell-based, murine; settings: Mus musculus, B16-F10, 72 h exposure, read-out: IC50
HT-29 = experiment: as above; type: cell-based, human; settings: Homo sapiens, 72 h exposure, read-out: IC50
[5] = dose 6.25 mg kg-1 per day, nude mice
[6] = dose 12.5 mg kg-1 per day, nude mice
[7] = dose 25 mg kg-1 per day, nude mice
[8] = once daily on days 1-5 after inoculation
[9] = at non-toxic doses, i.p. once daily for 5 consecutive days
[10] = dose 6.25 mg kg-1 per day, q.d., i.p., days 1, 5, 9 after inoculation, s.c. tumour, BDF1 mice
[11] = dose 12.5 mg kg-1 per day, q.d., i.p., days 1, 5, 9 after inoculation, s.c. tumour, BDF1 mice
[12] = dose 25 mg kg-1 per day, q.d., i.p., days 1, 5, 9 after inoculation, s.c. tumour, BDF1 mice

Q: What does the source list for `CC(=O)O[C@H]1C(=O)[C@@]2(C)[C@H]([C@H](OC(=O)c3ccccc3)[C@]3(O)C[C@H](OC(=O)[C@H](O)[C@@H](NC(=O)c4ccccc4)c4ccccc4)C(C)=C1C3(C)C)[C@]1(OC(C)=O)CO[C@@H]1C[C@@H]2O` [Paclitaxel, reference compound]?
A: IC50 (A549): 3.4 ng/mL (≈ 3.98 nM); Response rate (ovarian tumours): 30%; Optimal dose ([1]; administered on days 1-5 after inoculation, nude mice): 12.5 mg kg-1 per dose; Tumour weight inhibition (TWI) when untreated mice had a mean tumour mass of 0.5 g ([1]; analogues optimally, paclitaxel at non-toxic doses): 80%; Delay (1.0 g) (footnote: delay to reach mean tumour mass = 0.5 g, compared with untreated) [1, 5]: 1.4 days; Per cent cures (mice with no palpable tumours, day 60) [1, 5]: 0%; Per cent toxicity [1, 5]: 0%; TWI (per cent tumour weight inhibition when untreated control mean = 0.5 g) [1, 5]: 42%; Delay (1.0 g) (footnote: delay to reach mean tumour mass = 0.5 g, compared with untreated) [1, 6]: 13.4 days; Per cent cures (mice with no palpable tumours, day 60) [1, 6]: 10%; Per cent toxicity [1, 6]: 0%; TWI (per cent tumour weight inhibition when untreated control mean = 0.5 g) [1, 6]: 80%; Delay (1.0 g) (footnote: delay to reach mean tumour mass = 0.5 g, compared with untreated) [1, 7]: 19.1 days; Per cent cures (mice with no palpable tumours, day 60) [1, 7]: 30%; Per cent toxicity [1, 7]: 40%; TWI (per cent tumour weight inhibition when untreated control mean = 0.5 g) [1, 7]: 100%; Cure rate [1, 8]: 10%; Delay in tumour growth compared with untreated controls [1, 8]: 13.4 days; MTD (q.d. days 1-5) [2]: 25 mg kg-1 per day; IC50 (P388): 9.9 ng/mL (≈ 11.6 nM); Tmax (in vivo): 1.5 h; half-life (in vivo): 2.9 h; Response rate (breast tumour): 48%; Cure rate at optimal non-toxic dose [3, 9]: 0%; Optimal increase in life span (ILS) [3, 9]: 96%; %ILS (group mean increase in lifespan) ([3]; dose 6.25 mg kg-1 per day): 34%; MST (mean survival time ± s.d.) ([3]; dose 6.25 mg kg-1 per day): 26.4 ± 3.4 days; Per cent toxicity (mice with premature death) ([3]; dose 6.25 mg kg-1 per day): 0%; %ILS (group mean increase in lifespan) ([3]; dose 12.5 mg kg-1 per day): 34%; Per cent cures (mice alive 60 days after inoculation) ([3]; dose 12.5 mg kg-1 per day): 0%; Per cent toxicity (mice with premature death) ([3]; dose 12.5 mg kg-1 per day): 0%; %ILS (group mean increase in lifespan) ([3]; dose 25 mg kg-1 per day): 96%; MST (mean survival time ± s.d.) ([3]; dose 25 mg kg-1 per day): 38.6 ± 4.8 days; Per cent cures (mice alive 60 days after inoculation) ([3]; dose 25 mg kg-1 per day): 0%; Per cent toxicity (mice with premature death) ([3]; dose 25 mg kg-1 per day): 0%; Optimal dose ([3]; i.p. once daily for 5 consecutive days): 25 mg/kg/day; AUC [4]: 42.53 ig per h ml-1; AUC value (rounded) [4]: 43 jg h-1 ml-1; Cmax [4]: 14.13 ig ml-1; Cmax (rounded) [4]: 14 jg ml-1; Tumour weight inhibition (TWI) when untreated mice had a mean tumour mass of 1 g (murine M109 solid tumour): 47%; Delay (1.0 g): delay to reach mean tumour mass = 1.0 g, compared with untreated (murine M109 solid tumour; [10]): 0.4 days; Per cent cures (mice with no palpable tumours, day 60) (murine M109 solid tumour; [10]): 0%; Per cent toxicity (murine M109 solid tumour; [10]): 0%; TWI (per cent tumour weight inhibition when untreated control mean = 1.0 g) (murine M109 solid tumour; [10]): 22%; Days (1.0 g): days to reach mean tumour mass = 1.0 g ± s.d. (murine M109 solid tumour; [11]): 12.6+ 1.0 days; Delay (1.0 g): delay to reach mean tumour mass = 1.0 g, compared with untreated (murine M109 solid tumour; [11]): 0.6 days; Per cent cures (mice with no palpable tumours, day 60) (murine M109 solid tumour; [11]): 0%; Per cent toxicity (murine M109 solid tumour; [11]): 0%; TWI (per cent tumour weight inhibition when untreated control mean = 1.0 g) (murine M109 solid tumour; [11]): 40%; Delay (1.0 g): delay to reach mean tumour mass = 1.0 g, compared with untreated (murine M109 solid tumour; [12]): 0.9 days; Per cent cures (mice with no palpable tumours, day 60) (murine M109 solid tumour; [12]): 0%; Per cent toxicity (murine M109 solid tumour; [12]): 30%; TWI (per cent tumour weight inhibition when untreated control mean = 1.0 g) (murine M109 solid tumour; [12]): 47%; Delay in solid tumour growth to 1 g (murine M109 solid tumour; paclitaxel at a non-toxic dose): 0.6 days; IC50 (B16F10): 4.9 ng/mL (≈ 5.74 nM); IC50 (HT-29): 2.7 ng/mL (≈ 3.16 nM)
